Laboratory results as given in patent US20050107475A1, “Methods of using farnesoid x receptor (frx) agonists” (priority 2002, published 2005).

How the values were obtained:
primary rat adipocytes [1] = conditions: added to cultures of primary rat adipocytes; cited from earlier work
FvB mice = conditions: 1 mg/kg/day, intravenously by osmotically driven implanted pump, vs carrier alone; cited from earlier work
primary rat adipocytes [2] = conditions: added to cultures of primary rat adipocytes; cited from earlier work; remark: listed apart in the source
[3] = tested on: human Fibroblast Growth Factor 19 (hFGF19); experiment: Differential expression of FGF19 in human hepatocytes treated with FXR agonists (transcript profiling); type: cell-based; conditions: vs DMSO control
Description: The present study utilized differential gene expression analysis as performed by CuraGen Corporation (New Haven, Conn.) using transcript profiling technology. […] In brief, RNA is extracted from samples and cDNA synthesis is carried out. The cDNAs are then digested with multiple pairs of different restriction enzymes (standard set of 96 different pairs of restriction enzymes with 6 base-pair recognition sites (subsequence pairs)), and the digested products are ligated to complementary adapters containing standardized PCR priming sequences. Multiple PCR cycles are carried out using one biotinylated adapter-specific primer and one fluorescently labeled adapter-specific primer. Following PCR amplification, the biotin-labeled DNA is purified on immobilized streptavidin. Denatured single stranded cDNA fragments are then sized using capillary electrophoresis, and the fluorescently labeled fragments are detected by laser excitation. Since the biotin label is needed for purification and the fluorescent label is needed for detection, all analyzed fragments result from restriction digestion with both enzymes.
Differentially expressed peaks are identified by comparing the composite traces of the experimental samples vs. the control samples using bioinformatics algorithms. […]

Question: What does the source list for “recombinant human FGF-19: recombinant human fibroblast growth factor 19 protein”?
Answer: release of leptin from the cells (primary rat adipocytes [1]): increase the release of leptin; food intake (FvB mice): increased food intake; oxygen consumption (FvB mice): increased oxygen consumption; uptake of glucose (primary rat adipocytes [2]): decrease the uptake of glucose

Question: Which “Increase in expression of hFGF19 compared to control cells” value [3] does the source give for `CC(C)c1onc(-c2c(Cl)cccc2Cl)c1COc1ccc(/C=C/c2cccc(C(=O)O)c2)c(Cl)c1` [GW4064X] here?
Answer: The value was 36.4 fold.
